Laboratory results taken from paper PMC12305494, “Discovery of PXR Antagonist MI891 and PXR Degrader MI1013 and Their Roles in Hepatic Gene Regulation” (Journal of Medicinal Chemistry, 2025).

Experiments:
CAR3 variant = biological target: T1, CAR3 variant (Homo sapiens, UniProt Q14994, DEL233-236); assay: CAR3 variant luciferase reporter assay; type: cell-based; conditions: at concentrations up to 10 μM
T1 construct: expressed in transfected cells
Method: Rhesus monkey, mouse, and rat PXR expression vectors (100 ng/well each) were also obtained from GenScript. […] Carlberg (University of Kuopio, Kuopio, Finland).
The cells were cultured in DMEM medium (Merck) supplemented with 10% fetal bovine serum.

PXR-eGFP = biological target: T2, PXR-eGFP (Homo sapiens, UniProt O75469); assay: Microscale thermophoresis (MST); type: binding; conditions: COS-1 cell lysate expressing PXR-eGFP
T2 construct: expressed in transfected cells; host or cells: COS-1 (lysate used)
T2 sequence (O75469 whole entry): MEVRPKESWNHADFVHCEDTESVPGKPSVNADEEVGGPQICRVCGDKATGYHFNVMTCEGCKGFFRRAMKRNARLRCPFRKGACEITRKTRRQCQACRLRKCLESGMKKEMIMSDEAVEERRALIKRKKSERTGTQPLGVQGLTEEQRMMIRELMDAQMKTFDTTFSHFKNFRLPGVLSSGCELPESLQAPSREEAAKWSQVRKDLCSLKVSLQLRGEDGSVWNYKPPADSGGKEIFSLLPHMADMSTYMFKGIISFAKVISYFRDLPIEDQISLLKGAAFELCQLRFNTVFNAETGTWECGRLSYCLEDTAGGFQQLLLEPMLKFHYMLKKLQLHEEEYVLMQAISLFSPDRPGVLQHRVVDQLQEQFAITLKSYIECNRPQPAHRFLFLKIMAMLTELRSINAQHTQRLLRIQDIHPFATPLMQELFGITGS
Method: Microscale Thermophoresis (MST) experiments were conducted using the Monolith NT.115 (201810-BR-N006) (Blue/Red) instrument from NanoTemper Technologies GmbH, Germany. Cell lysates from COS-1 cells expressing PXR-eGFP served as the source of fluorescently labeled PXR, allowing the study of proteins in near-native conditions. COS-1 cells were transfected with 1000 ng of GFP-fused PXR (PXR-eGFP) using Lipofectamine 3000 and lysed 48 h post-transfection with RIPA buffer. To assess MI891 binding to PXR, cell lysates were diluted 2x with MST buffer (10 mM Na-phosphate buffer, pH 7.4, 1 mM MgCl2, 3 mM KCl, 150 mM NaCl, 0.05% Tween-20) to achieve optimal fluorescence levels. A titration series of MI891 (0–30 μM) was incubated with the diluted cell lysates. Measurements were taken in premium-coated capillaries (NanoTemper Technologies GmbH, MO-K025) using an LED source (Blue LED: Ex: 470(±10)/Em: 520(±10) nm) with an excitation wavelength of 470 nm and a 50% maximum stimulation time (MST). The excitation power was […]. Binding affinity was evaluated using the Hill model, with each data point representing mean fraction bound values from three independent experiments. The bound fraction of PXR-eGFP was determined, and fitting was performed using the Hill model method in MO Affinity Analysis v2.3 software (NanoTemper Technologies). […]

PKA(h) = biological target: T3, PKA(h) (Homo sapiens, UniProt P17612); assay: Off-target kinase panel; type: biochemical; conditions: MI891 @ 1 µM
T3 construct: purchased Eurofins (Millipore) KinaseProfiler, inferred from the naming style
Method: (§1) To evaluate the selectivity of MI891, an off-target profiling study was performed using a panel of 58 kinases.

LOK(h) = biological target: T4, LOK(h) (Homo sapiens, UniProt O94804); assay: Off-target kinase panel; type: biochemical; conditions: MI891 @ 1 µM
T4 construct: purchased Eurofins (Millipore) KinaseProfiler, inferred from the naming style
T4 sequence (O94804 whole entry): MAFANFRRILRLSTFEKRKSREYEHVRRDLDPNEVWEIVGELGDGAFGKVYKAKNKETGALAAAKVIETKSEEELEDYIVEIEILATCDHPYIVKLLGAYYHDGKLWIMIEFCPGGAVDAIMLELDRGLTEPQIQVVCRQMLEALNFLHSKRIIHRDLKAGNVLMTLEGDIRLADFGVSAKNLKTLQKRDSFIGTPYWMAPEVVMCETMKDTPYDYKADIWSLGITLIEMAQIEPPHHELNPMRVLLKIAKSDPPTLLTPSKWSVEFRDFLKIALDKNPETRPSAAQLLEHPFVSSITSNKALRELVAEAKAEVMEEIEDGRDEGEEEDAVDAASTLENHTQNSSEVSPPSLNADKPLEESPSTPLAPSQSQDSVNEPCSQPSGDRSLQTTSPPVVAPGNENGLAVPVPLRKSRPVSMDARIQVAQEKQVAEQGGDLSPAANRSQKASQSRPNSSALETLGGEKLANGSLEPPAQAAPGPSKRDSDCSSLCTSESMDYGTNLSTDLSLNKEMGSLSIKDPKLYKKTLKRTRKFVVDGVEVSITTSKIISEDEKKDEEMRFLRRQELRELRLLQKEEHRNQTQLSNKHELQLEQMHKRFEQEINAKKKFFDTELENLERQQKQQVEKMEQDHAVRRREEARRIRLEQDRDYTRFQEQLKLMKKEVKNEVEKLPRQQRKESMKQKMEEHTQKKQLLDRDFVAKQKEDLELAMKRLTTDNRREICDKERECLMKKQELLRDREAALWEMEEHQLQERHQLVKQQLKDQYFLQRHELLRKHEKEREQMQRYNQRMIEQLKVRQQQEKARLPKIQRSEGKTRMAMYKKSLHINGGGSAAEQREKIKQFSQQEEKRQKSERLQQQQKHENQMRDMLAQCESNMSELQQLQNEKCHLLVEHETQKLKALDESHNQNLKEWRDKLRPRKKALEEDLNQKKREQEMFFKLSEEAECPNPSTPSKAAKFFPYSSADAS
Method: as §1

c-RAF(h) = c-RAF(h) (Homo sapiens, UniProt P04049); assay: Off-target kinase panel; type: biochemical; conditions: MI891 @ 1 µM
Method: as §1

CHK1(h) = CHK1(h) (Homo sapiens, UniProt O14757); assay: Off-target kinase panel; type: biochemical; conditions: MI891 @ 1 µM
CHK1(h), sequence (O14757 whole entry): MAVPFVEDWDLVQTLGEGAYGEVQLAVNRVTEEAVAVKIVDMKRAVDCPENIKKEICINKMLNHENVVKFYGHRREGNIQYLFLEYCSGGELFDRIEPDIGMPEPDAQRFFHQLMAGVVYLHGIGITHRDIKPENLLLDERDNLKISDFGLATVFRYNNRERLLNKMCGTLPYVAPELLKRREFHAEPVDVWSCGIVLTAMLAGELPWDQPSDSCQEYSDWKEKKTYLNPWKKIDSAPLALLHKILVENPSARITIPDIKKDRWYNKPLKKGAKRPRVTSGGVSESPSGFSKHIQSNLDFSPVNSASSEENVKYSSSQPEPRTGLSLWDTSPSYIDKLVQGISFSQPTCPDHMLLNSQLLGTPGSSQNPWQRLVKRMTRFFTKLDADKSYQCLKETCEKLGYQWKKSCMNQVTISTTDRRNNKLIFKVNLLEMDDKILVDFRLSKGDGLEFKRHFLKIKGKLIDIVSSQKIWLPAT
Method: as §1

Plk3(h) = biological target: T5, Plk3(h) (Homo sapiens, UniProt Q9H4B4); assay: Off-target kinase panel; type: biochemical; conditions: MI891 @ 1 µM
T5 construct: purchased Eurofins (Millipore) KinaseProfiler, inferred from the naming style
Method: as §1

MSK2(h) = biological target: T6, MSK2(h) (Homo sapiens, UniProt O75676); assay: Off-target kinase panel; type: biochemical; conditions: MI891 @ 1 µM
T6 construct: purchased Eurofins (Millipore) KinaseProfiler, inferred from the naming style
Method: as §1

Mnk2(h) = biological target: T7, Mnk2(h) (Homo sapiens, UniProt Q9HBH9); assay: Off-target kinase panel; type: biochemical; conditions: MI891 @ 1 µM
T7 construct: purchased Eurofins (Millipore) KinaseProfiler, inferred from the naming style
Method: as §1

[1] = biological target: T8, PI3 Kinase (p110b/p85a)(h) (Homo sapiens, UniProt P42338); assay: Off-target kinase panel; type: biochemical; conditions: MI891 @ 1 µM
T8 construct: purchased Eurofins (Millipore) KinaseProfiler, inferred from the naming style
Method: as §1

Rse(h) = biological target: T9, Rse(h) (Homo sapiens, UniProt Q06418); assay: Off-target kinase panel; type: biochemical; conditions: MI891 @ 1 µM
T9 construct: purchased Eurofins (Millipore) KinaseProfiler, inferred from the naming style
T9 sequence (Q06418 41-890): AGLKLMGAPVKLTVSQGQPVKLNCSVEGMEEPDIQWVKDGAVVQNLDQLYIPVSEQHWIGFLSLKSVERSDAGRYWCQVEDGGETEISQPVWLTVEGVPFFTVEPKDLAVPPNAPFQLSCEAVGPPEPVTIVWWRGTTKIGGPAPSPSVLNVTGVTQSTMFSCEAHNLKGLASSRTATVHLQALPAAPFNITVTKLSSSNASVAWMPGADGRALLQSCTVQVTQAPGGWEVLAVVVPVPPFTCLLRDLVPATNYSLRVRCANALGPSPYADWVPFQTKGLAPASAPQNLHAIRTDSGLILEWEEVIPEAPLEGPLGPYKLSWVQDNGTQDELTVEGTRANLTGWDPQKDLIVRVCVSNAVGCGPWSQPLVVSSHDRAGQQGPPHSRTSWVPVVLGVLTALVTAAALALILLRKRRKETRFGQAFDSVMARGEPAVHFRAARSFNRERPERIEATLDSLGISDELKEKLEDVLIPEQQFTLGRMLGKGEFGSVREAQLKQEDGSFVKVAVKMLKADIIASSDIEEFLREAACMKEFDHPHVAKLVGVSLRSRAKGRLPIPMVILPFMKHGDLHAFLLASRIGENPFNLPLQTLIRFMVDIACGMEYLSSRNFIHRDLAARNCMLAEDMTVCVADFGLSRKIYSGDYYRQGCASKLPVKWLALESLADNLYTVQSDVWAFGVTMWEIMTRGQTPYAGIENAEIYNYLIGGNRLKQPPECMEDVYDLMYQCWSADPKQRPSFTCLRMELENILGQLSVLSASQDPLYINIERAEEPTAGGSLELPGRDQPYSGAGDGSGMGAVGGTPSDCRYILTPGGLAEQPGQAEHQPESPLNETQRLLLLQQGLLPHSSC
Method: as §1

Aurora-A(h) = Aurora-A(h) (Homo sapiens, UniProt O14965); assay: Off-target kinase panel; type: biochemical; conditions: MI891 @ 1 µM
Aurora-A(h), sequence (O14965 whole entry): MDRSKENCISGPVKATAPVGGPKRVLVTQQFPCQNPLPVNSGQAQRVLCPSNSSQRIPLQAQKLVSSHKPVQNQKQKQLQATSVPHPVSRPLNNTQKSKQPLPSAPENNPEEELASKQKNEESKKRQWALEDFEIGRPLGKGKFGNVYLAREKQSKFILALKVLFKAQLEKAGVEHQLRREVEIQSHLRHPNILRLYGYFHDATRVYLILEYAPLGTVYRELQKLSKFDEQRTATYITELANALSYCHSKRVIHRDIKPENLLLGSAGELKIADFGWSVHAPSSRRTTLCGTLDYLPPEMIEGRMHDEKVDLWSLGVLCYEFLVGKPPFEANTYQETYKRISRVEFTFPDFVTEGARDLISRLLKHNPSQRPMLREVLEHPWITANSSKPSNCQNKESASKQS
Method: as §1

EphA5(h) = EphA5(h) (Homo sapiens, UniProt P54756); assay: Off-target kinase panel; type: biochemical; conditions: MI891 @ 1 µM
Method: as §1

ALK(h) = ALK(h) (Homo sapiens, UniProt Q9UM73); assay: Off-target kinase panel; type: biochemical; conditions: MI891 @ 1 µM
ALK(h), sequence (Q9UM73 19-1620): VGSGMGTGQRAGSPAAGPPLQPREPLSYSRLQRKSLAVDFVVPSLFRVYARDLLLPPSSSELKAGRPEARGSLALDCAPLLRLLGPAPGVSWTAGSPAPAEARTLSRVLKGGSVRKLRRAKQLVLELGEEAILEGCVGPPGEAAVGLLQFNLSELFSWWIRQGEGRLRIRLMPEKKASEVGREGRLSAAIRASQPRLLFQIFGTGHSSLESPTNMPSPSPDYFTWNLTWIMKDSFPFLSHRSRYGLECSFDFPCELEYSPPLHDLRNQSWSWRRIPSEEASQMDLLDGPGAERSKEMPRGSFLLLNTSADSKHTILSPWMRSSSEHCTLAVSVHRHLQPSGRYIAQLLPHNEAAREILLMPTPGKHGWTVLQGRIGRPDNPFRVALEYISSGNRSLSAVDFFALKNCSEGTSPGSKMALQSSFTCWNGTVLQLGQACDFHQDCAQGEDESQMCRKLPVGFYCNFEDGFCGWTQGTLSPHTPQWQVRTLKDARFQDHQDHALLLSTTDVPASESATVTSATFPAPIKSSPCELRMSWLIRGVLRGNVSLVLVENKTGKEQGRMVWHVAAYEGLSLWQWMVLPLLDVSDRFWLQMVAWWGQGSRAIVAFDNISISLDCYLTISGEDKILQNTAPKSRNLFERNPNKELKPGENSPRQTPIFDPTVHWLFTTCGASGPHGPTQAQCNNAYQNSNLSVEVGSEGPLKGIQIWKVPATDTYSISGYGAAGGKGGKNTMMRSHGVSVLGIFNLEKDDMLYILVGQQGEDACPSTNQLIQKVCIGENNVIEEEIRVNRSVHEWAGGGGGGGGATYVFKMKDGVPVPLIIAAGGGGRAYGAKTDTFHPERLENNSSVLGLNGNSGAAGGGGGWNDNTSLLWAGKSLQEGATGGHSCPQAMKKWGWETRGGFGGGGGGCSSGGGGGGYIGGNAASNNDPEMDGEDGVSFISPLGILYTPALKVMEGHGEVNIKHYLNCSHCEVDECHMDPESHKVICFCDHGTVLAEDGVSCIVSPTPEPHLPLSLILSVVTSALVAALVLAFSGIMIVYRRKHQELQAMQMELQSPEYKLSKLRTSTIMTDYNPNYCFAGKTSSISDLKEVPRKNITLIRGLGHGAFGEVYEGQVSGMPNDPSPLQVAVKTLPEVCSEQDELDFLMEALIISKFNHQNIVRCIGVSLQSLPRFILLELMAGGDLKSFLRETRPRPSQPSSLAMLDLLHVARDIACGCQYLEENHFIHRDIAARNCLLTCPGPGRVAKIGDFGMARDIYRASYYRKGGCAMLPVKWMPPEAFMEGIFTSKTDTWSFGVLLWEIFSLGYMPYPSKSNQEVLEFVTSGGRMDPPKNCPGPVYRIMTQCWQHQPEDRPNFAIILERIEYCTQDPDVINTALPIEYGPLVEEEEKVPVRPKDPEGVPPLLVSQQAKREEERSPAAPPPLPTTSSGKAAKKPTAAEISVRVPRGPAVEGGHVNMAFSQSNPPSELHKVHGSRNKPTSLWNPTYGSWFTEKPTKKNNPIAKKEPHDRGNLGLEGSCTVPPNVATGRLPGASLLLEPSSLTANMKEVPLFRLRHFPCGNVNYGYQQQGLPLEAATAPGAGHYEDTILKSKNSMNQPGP
Method: as §1

MLK1(h) = biological target: T10, MLK1(h) (Homo sapiens, UniProt P80192); assay: Off-target kinase panel; type: biochemical; conditions: MI891 @ 1 µM
T10 construct: purchased Eurofins (Millipore) KinaseProfiler, inferred from the naming style
Method: as §1

p70S6K(h) = biological target: T11, p70S6K(h) (Homo sapiens, UniProt P23443); assay: Off-target kinase panel; type: biochemical; conditions: MI891 @ 1 µM
T11 construct: purchased Eurofins (Millipore) KinaseProfiler, inferred from the naming style
Method: as §1

PPARγ = biological target: T12, PPARγ (Homo sapiens, UniProt P37231); assay: PPARγ agonist reporter assay; type: cell-based; conditions: 10 µM MI891
T12 construct: expressed in transfected cells
T12 sequence (P37231 238-505 limits assumed, species assumed): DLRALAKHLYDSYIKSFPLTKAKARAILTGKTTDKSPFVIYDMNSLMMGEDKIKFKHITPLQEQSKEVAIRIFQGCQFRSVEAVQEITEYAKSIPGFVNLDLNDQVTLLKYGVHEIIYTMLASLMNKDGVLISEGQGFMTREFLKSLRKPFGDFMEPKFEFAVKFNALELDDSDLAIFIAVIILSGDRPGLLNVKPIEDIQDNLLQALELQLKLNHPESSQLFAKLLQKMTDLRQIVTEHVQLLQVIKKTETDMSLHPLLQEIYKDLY
Method: For the farnesoid X receptor (FXR) luciferase gene reporter assay, the full-length expression vector was paired with pFXRE-luc luciferase construct. The p1A1-luc construct was used in the aryl hydrocarbon receptor (AhR) assays with pRL-TK for normalization. Gal4-LXR-α/β, and Gal4-PPAR-γ constructs were used with the pGAL4 UAS-luc construct. For the VDR assay, expression vector pSG5-hVDR together with pVDRE-luc constructs was used. Firefly and Renilla luciferase activities were analyzed using a Dual reporter assay (Promega). For the nuclear receptor assays, prototype ligands were used at the following concentrations: Calcitriol for VDR (100 nM), GW3965 for LXRα and LXRβ (10 μM), 6-OCA for FXR (1 μM), fenofibrate for PPARα (10 μM), estradiol for ERα and β (10 μM), rosiglitazone for PPARγ (10 μM), 3-MC for AhR (5 μM), and TCPOBOP for mCAR (10 μM). Detailed descriptions and protocols are detailed in our recent publication. , […]
hydrophobic interactions. (F) Superimposed diagram of PXR bound with agonist (SJPYT-328) and antagonists (MI891 and SJPYT-331) to differentiate the agonist and antagonist interactions with helix 12 (H12). The interaction of the agonist with PXR residue (L428) is circled. (G) Extended nuclear receptor selectivity profile. […]

[2] = Plasma stability, human plasma; type: in vitro ADME; conditions: up to 120 min, read-out: Plasma stability, t1/2 (min), human

- activation of CAR3 variant (CAR3 variant): no significant activation
- Kd (PXR-eGFP): 1700 nM
- activity at 1 µM (PKA(h)): 108%
- activity at 1 µM (LOK(h)): 94%
- activity at 1 µM (c-RAF(h)): 101%
- activity at 1 µM (CHK1(h)): 93%
- activity at 1 µM (Plk3(h)): 113%
- activity at 1 µM (MSK2(h)): 110%
- activity at 1 µM (Mnk2(h)): 86%
- activity at 1 µM [1]: 100%
- activity at 1 µM (Rse(h)): 109%
- activity at 1 µM (Aurora-A(h)): 81%
- activity at 1 µM (EphA5(h)): 106%
- activity at 1 µM (ALK(h)): 76%
- activity at 1 µM (MLK1(h)): 104%
- activity at 1 µM (p70S6K(h)): 105%
- agonistic effect on PPARγ (PPARγ): no agonistic effects
- half-life [2]: > 120 min
Structure (SMILES): NC(=O)c1cc(Cn2cc(-c3c(-c4ccc(Cl)cc4)nc4c(F)cc(F)cn34)nn2)ccc1Cl [Compound 11, 2-Chloro-5-((4-(2-(4-chlorophenyl)-6,8-difluoroimidazo[1,2-a]pyridin-3-yl)-1H-1,2,3-triazol-1-yl)methyl)-benzamide]
